In US20130344026A1, “Dimeric Smac Mimetics” (priority 2009, published 2013):
Read-outs that look alike come from different tables or passages of the source.

System: PANC-1 cells
Experiment: cell viability assay in PANC-1 cells (compound alone, + 100 ng/ml TNFa, + 300 ng/ml TRAIL)
Format: cell-based
[1] = Homo sapiens, PANC-1, compound alone, Tables 15-18, read-out: IC50 (uM) in cell viability assay in PANC-1 cells: Cmpnd alone
[2] = with 100 ng/ml TNFa, Tables 15-18, read-out: IC50 (uM) in cell viability assay in PANC-1 cells: Cmpnd + 100 ng/ml TNFa
[3] = with 300 ng/ml TRAIL, Tables 15-18, read-out: IC50 (uM) in cell viability assay in PANC-1 cells: Cmpnd + 300 ng/ml TRAIL
[4] = Homo sapiens, PANC-1, compound alone, Tables 6-10, read-out: IC50 (μM) in cell viability assay in PANC-1 cells: Compound alone
[5] = with 100 ng/ml TNFa, Tables 6-10, read-out: IC50 (μM) in cell viability assay in PANC-1 cells: Compound + 100 ng/ml TNFa
[6] = with 300 ng/ml TRAIL, Tables 6-10, read-out: IC50 (μM) in cell viability assay in PANC-1 cells: Compound + 300 ng/ml TRAIL
[7] = Homo sapiens, PANC-1 cells, compound alone, read-out: IC50 (uM) in cell viability assay in PANC-1 cells, Cmpnd alone
[8] = PANC-1 cells, + 100 ng/ml TNFa, read-out: IC50 (uM) in cell viability assay in PANC-1 cells, Cmpnd + 100 ng/ml TNFa
[9] = PANC-1 cells, + 300 ng/ml TRAIL, read-out: IC50 (uM) in cell viability assay in PANC-1 cells, Cmpnd + 300 ng/ml TRAIL

Structure (SMILES)	IC50 [4] [µM]	IC50 [5] [µM]	IC50 [6] [µM]	further results
CN[C@@H](C)C(=O)N[C@H](C(=O)N1C[C@H](NC(=O)c2ccc(CCc3ccc(C(=O)N[C@@H]4C[C@@H](C(=O)N[C@@H]5CCCc6ccccc65)N(C(=O)[C@@H](NC(=O)[C@H](C)NC)C(C)(C)C)C4)cc3)cc2)C[C@H]1C(=O)N[C@@H]1CCCc2ccccc21)C(C)(C)C [Compound P2-46]	–	–	–	IC50 [1]: > 1 µM; IC50 [2]: 0.0007 µM; IC50 [3]: 0.0009 µM
CN[C@@H](C)C(=O)NC(C(=O)N1C[C@@H](NC(=O)c2cccc(C(=O)N[C@H]3CC(C(=O)N[C@@H]4CC5CCC4(C)C5(C)C)N(C(=O)[C@@H](NC(=O)[C@H](C)NC)C(C)(C)C)C3)c2)CC1C(=O)N[C@@H]1CC2CCC1(C)C2(C)C)C(C)(C)C (stereo partly drawn) [Compound 40]	> 1	0.555	0.517	–
CC[C@H](NC(=O)[C@H](C)NC)C(=O)N[C@@H](CCNC(=O)c1cccc(C(=O)N[C@H]2C[C@@H](C(=O)N[C@@H]3CCCc4ccccc43)N(C(=O)[C@@H](NC(=O)[C@H](C)NC)C(C)(C)C)C2)c1)C(=O)N[C@H](C)c1ccccc1 [Compound 177]	> 1	0.035	0.05	–
CN[C@@H](C)C(=O)N[C@H](C(=O)N[C@@H](CCNC(=O)c1ccc(C#Cc2ccc(C(=O)N[C@H]3C[C@@H](C(=O)N[C@@H]4CCCc5ccccc54)N(C(=O)[C@@H](NC(=O)[C@H](C)NC)C(C)(C)C)C3)cc2)cc1)C(=O)NC(C)C(C)C)C(C)C (stereo partly drawn) [Compound 194]	> 1	0.057	0.06	–
CN[C@@H](C)C(=O)N[C@H](C(=O)N[C@@H](CCNC(=O)c1cccc(C(=O)N[C@H]2C[C@@H](C(=O)N[C@@H]3CCCc4ccccc43)N(C(=O)[C@@H](NC(=O)[C@H](C)NC)C(C)(C)C)C2)c1)C(=O)N[C@@H]1CCCc2ccccc21)C(C)C [Compound 170]	> 1	0.015	0.015	–
CN[C@@H](C)C(=O)N[C@H](C(=O)N1CCCC1C(=O)N[C@H](COCC#CC#CCOC[C@@H](NC(=O)[C@H](C)NC(=O)[C@H](NC(=O)[C@@H](C)NC)C1CCCCC1)C(C)C)C1CCCCC1)C(C)(C)C (stereo partly drawn) [Compound H-7]	–	–	–	IC50 [1]: > 1 µM; IC50 [2]: 0.0007 µM; IC50 [3]: 0.0007 µM
CCCC[C@@H](C)NC(=O)c1cc(C(=O)N[C@H]2C[C@@H](C(=O)N[C@@H]3CCCc4ccccc43)N(C(=O)[C@@H](NC(=O)[C@H](C)NC)C(C)(C)C)C2)cc(C(=O)N[C@H]2C[C@@H](C(=O)N[C@@H]3CCCc4ccccc43)N(C(=O)[C@@H](NC(=O)[C@H](C)NC)C(C)(C)C)C2)c1 [Compound 128]	> 1	0.01	0.014	–
CN[C@@H](C)C(=O)N[C@@H](CCNC(=O)c1ccc(-c2ccc(C(=O)NCC[C@H](NC(=O)[C@H](C)NC)C(=O)N3CCC[C@H]3C(=O)N[C@@H]3CCCc4ccccc43)cc2)cc1)C(=O)N1CCC[C@H]1C(=O)N[C@@H]1CCCc2ccccc21 [Compound P2-50]	–	–	–	IC50 [1]: > 1 µM; IC50 [2]: 0.067 µM; IC50 [3]: 0.019 µM
CN[C@@H](C)C(=O)N[C@H](C(=O)N1CCC[C@H]1Cn1ccnc1Cc1ccccc1)[C@@H](C)OCC#CC#CCO[C@H](C)[C@H](NC(=O)[C@H](C)NC)C(=O)N1CCC[C@H]1Cn1ccnc1Cc1ccccc1 [Compound 74]	> 1	> 1	> 1	–
CN[C@@H](C)C(=O)N[C@H](C(=O)N1C[C@@H](NC(=O)CC[C@@H](NC(=O)[C@H](NC(=O)[C@@H](C)NC)C(C)(C)C)C(=O)N[C@H]2CCCc3ccccc32)C[C@H]1C(=O)N[C@H](C)c1ccccc1)C(C)C [Compound 167]	> 1	0.06	0.1	–
CN[C@@H](C)C(=O)N[C@H](C(=O)N1C[C@@H](NC(=O)c2cccc(C(=O)N[C@H]3C[C@@H](C(=O)NC4CCCc5cc(F)ccc54)N(C(=O)[C@@H](NC(=O)[C@H](C)NC)C(C)(C)C)C3)c2)C[C@H]1C(=O)NC1CCCc2cc(F)ccc21)C(C)(C)C (single isomer, unassigned) [Compound 73]	–	0.0698	0.073	IC50 (compound alone, Tables 6-10, read-out: IC50 (μM) in cell viability assay in PANC-1 cells: Compound alone): > 1 µM
CN[C@@H](C)C(=O)N[C@H](C(=O)N1CCCC1C(=O)N[C@H](COCC#CC#CCOC[C@@H](NC(=O)[C@H](C)NC(=O)[C@H](NC(=O)[C@@H](CO)NC)C1CCCCC1)C(C)C)C1CCCCC1)C(C)(C)C (stereo partly drawn) [Compound H-8]	–	–	–	IC50 [1]: > 1 µM; IC50 [2]: 0.017 µM; IC50 [3]: 0.033 µM
CN[C@@H](C)C(=O)N[C@H](C(=O)N1CCC[C@H]1C(=O)N[C@H]1c2ccccc2C[C@@H]1OCCCCCCO[C@H]1Cc2ccccc2[C@@H]1NC(=O)[C@@H]1CCCN1C(=O)[C@@H](NC(=O)[C@H](C)NC)C(C)(C)C)C(C)(C)C [Compound 122]	> 1	0.0015	0.0014	–
CN[C@@H](C)C(=O)N[C@H](C(=O)N1CCC[C@H]1C(=O)N[C@H]1c2ccccc2C[C@@H]1NC(=O)c1ccc(C(=O)N[C@H]2Cc3ccccc3[C@@H]2NC(=O)[C@@H]2CCCN2C(=O)[C@@H](NC(=O)[C@H](C)NC)C(C)(C)C)cc1)C(C)(C)C [Compound 124]	> 1	0.061	0.066	–
CN[C@@H](CO)C(=O)N[C@H](C(=O)N1C[C@@H](NC(=O)c2cc(C(=O)N[C@H]3C[C@@H](C(=O)N[C@H](C)c4ccccc4)N(C(=O)[C@@H](NC(=O)[C@H](CO)NC)C(C)(C)C)C3)[nH]n2)C[C@H]1C(=O)N[C@H](C)c1ccccc1)C(C)(C)C [Compound P3-91]	–	–	–	IC50 [7]: > 1 µM; IC50 [8]: 0.152 µM; IC50 [9]: 0.225 µM
CN[C@@H](C)C(=O)N[C@H](C(=O)N1C[C@@H](NC(=O)C23CC4CC(C2)CC(C(=O)N[C@H]2C[C@@H](C(=O)N[C@H](C)c5ccccc5)N(C(=O)[C@@H](NC(=O)[C@H](C)NC)C(C)(C)C)C2)(C4)C3)C[C@H]1C(=O)N[C@H](C)c1ccccc1)C(C)(C)C [Compound P3-101]	–	–	–	IC50 [7]: > 1 µM; IC50 [8]: 0.001 µM; IC50 [9]: 0.001 µM
CN[C@@H](C)C(=O)N[C@H](C(=O)N[C@@H](CCNC(=O)c1cc(N)cc(C(=O)N[C@H]2C[C@@H](C(=O)N[C@@H]3CCCc4ccccc43)N(C(=O)[C@@H](NC(=O)[C@H](C)NC)C(C)(C)C)C2)c1)C(=O)N[C@@H]1CCCc2ccccc21)C(C)C [Compound 183]	> 1	0.044	0.061	–
CN[C@@H](C)C(=O)N[C@H](C(=O)N[C@@H](CCNC(=O)c1cccc(C(=O)N[C@H]2C[C@@H](C(=O)N[C@@H]3CCCc4ccccc43)N(C(=O)[C@@H](NC(=O)[C@H](C)NC)C(C)(C)C)C2)c1)C(=O)N[C@@H]1CCCc2ccccc21)C(C)(C)C [Compound 169]	> 1	0.01	0.028	–
CN[C@@H](C)C(=O)Nc1nc(CC(=O)NC[C@@H](NC(=O)[C@@H]2CCCN2C(=O)[C@@H](NC(=O)[C@H](C)NC)C(C)(C)C)c2ccccc2)cs1 [Compound 193]	> 1	> 1	> 1	–
CN[C@@H](C)C(=O)N[C@H](C(=O)N[C@@H](CCNC(=O)CC[C@H](NC(=O)[C@@H](NC(=O)[C@H](C)NC)C(C)(C)C)C(=O)N[C@@H]1CCCc2ccccc21)C(=O)N[C@H](C)C(C)C)C(C)C [Compound 166]	> 1	0.994	> 1	–
CN[C@@H](C)C(=O)N[C@H](C(=O)N1CCC[C@H]1C(=O)N[C@H](C)c1ccccc1)[C@H](C)NC(=O)c1ccc(C(=O)N[C@@H](C)[C@H](NC(=O)[C@H](C)NC)C(=O)N2CCC[C@H]2C(=O)N[C@H](C)c2ccccc2)cc1 [Compound 114]	> 1	0.199	0.184	–
CN[C@@H](C)C(=O)N[C@@H](CCCCCC[C@H](NC(=O)[C@H](C)NC)C(=O)N1C[C@@H](F)C[C@H]1C(=O)N[C@@H]1CCCc2ccccc21)C(=O)N1C[C@H](F)C[C@H]1C(=O)N[C@@H]1CCCc2ccccc21 [Compound 106]	> 1	0.006	0.006	–
CN[C@@H](C)C(=O)N[C@H](C(=O)N1C[C@@H](NC(=O)c2cccc(C(=O)N[C@H]3C[C@@H](C(=O)NC4CCCc5ccc([N+](=O)[O-])cc54)N(C(=O)[C@@H](NC(=O)[C@H](C)NC)C(C)(C)C)C3)c2)C[C@H]1C(=O)NC1CCCc2ccc([N+](=O)[O-])cc21)C(C)(C)C (single isomer, unassigned) [Compound 64]	> 1	0.18	0.151	–
CN[C@@H](C)C(=O)Nc1nc(CC(=O)NCCCC[C@H](NC(=O)[C@H](C)NC)C(=O)N2CCC[C@H]2C(=O)N[C@@H]2CCCc3ccccc32)cs1 [Compound 189]	> 1	> 1	> 1	–
CN[C@@H](C)C(=O)N[C@H](C(=O)N1C[C@@H](NC(=O)c2cccc(C(=O)N[C@H]3C[C@@H](C(=O)N[C@H](COC)[C@@H](C)OC)N(C(=O)[C@@H](NC(=O)[C@H](C)NC)C(C)(C)C)C3)c2)C[C@H]1C(=O)N[C@H](COC)[C@@H](C)OC)C(C)(C)C [Compound 69]	> 1	> 1	> 1	–
CCC1(NC(=O)[C@@H]2C[C@H](NC(=O)c3cc(C(=O)N[C@H]4C[C@@H](C(=O)NC5(CC)CCCc6ccccc65)N(C(=O)[C@@H](NC(=O)[C@H](C)NC)C(C)(C)C)C4)[nH]n3)CN2C(=O)[C@@H](NC(=O)[C@H](C)NC)C(C)(C)C)CCCc2ccccc21 (stereo partly drawn) [Compound 52]	> 1	0.046	0.052	–
